Data on three compounds can be found in US9329185B2, “Sulfonate compounds” (University of Massachusetts, priority 2013, dated 2016).

The structures appear in SMILES notation.

Series [1] can be described thus: Cleavage of reductive-labile protecting group by a reducing agent (TLC analysis). It counts as physicochemical. The conditions noted are these: 1 mM reducing agent (dithiothreitol or tris(2-carboxyethyl)phosphine), 30 minutes, room temperature, water (pH 7), analyzed by TLC. As for the experimental part: Compound 1 was treated with 1 mM of a reducing agent, i.e., dithiothreitol or tris(2-carboxyethyl)phosphine, for 30 minutes at room temperature in water (pH 7). The solution was analyzed by TLC. A control experiment was conducted by analyzing an aqueous solution containing Compound 1 without being treated with a reducing agent by using TLC.

Consider `CSSc1ccc(C(OS(=O)(=O)c2cccc3c(N(C)C)cccc23)C(F)(F)F)cc1` (stereo not drawn) [Compound 1, 2,2,2-trifluoro-1-(4-(methyldisulfanyl)phenyl)-ethyl 5-(dimethylamino)naphthalene-1-sulfonate], for which the “cleavage of the protecting group to form a deprotected sulfonate dye” value in series [1] was “rapidly cleaved”. Consider `Cc1ccc(C(OS(=O)(=O)CCCN2CCCc3cc4c(cc32)Oc2cc3c(cc2=N4)CCC[N+]=3CCCS(=O)(=O)OC(c2ccc(C)cc2)C(F)(F)F)C(F)(F)F)cc1` (stereo not drawn), for which the melting point was 220 to 222 °C (dec.). `Cc1ccc(C(OS(=O)(=O)CCCCl)C(F)(F)F)cc1` (stereo not drawn) [Compound 22, 2,2,2-trifluoro-1-(p-tolyl)ethyl 3-chloropropane-1-sulfonate] yielded a melting point of 61 to 63 °C.

By melting point is commonly meant the temperature, or range, at which the solid turns liquid.
